Data as given in publication PMC6019134, “1,2,6-Thiadiazinones as Novel Narrow Spectrum Calcium/Calmodulin-Dependent Protein Kinase Kinase 2 (CaMKK2) Inhibitors” (Molecules : A Journal of Synthetic Chemistry and Natural …, 2018).
Read-outs that look alike come from different tables or passages of the source.

Columns and labels:
Assay in all cases: DSF thermal shift, kinase panel
Assay type in all cases: binding
PHKG2A = molecular target: T1, PHKG2A (Homo sapiens, UniProt P15735); conditions: 10 μM compound
T1 construct: purchased in-house (home-made panel, SGC-style construct names)
T1 sequence (P15735 1-406): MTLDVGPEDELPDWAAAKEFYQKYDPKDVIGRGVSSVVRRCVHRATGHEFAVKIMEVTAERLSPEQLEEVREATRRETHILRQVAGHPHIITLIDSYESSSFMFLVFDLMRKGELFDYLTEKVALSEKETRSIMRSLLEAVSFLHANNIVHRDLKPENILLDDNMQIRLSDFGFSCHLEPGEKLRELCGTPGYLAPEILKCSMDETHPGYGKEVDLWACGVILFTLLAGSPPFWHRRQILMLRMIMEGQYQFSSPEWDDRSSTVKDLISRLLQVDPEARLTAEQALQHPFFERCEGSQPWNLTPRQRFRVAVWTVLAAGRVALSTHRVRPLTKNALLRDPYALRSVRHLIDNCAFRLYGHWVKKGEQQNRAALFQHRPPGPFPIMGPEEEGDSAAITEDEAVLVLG
Outline: (§1)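 Thermal denaturation of 1 µM kinase with 10 µM compound present, monitored by dye fluorescence across 25–95 °C; shift in Tm relative to 0.2% DMSO reference.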

STK3 = molecular target: T2, STK3 (Homo sapiens, UniProt Q13188); conditions: 10 μM compound
T2 construct: purchased in-house (home-made panel, SGC-style construct names)
T2 sequence (Q13188 1-491): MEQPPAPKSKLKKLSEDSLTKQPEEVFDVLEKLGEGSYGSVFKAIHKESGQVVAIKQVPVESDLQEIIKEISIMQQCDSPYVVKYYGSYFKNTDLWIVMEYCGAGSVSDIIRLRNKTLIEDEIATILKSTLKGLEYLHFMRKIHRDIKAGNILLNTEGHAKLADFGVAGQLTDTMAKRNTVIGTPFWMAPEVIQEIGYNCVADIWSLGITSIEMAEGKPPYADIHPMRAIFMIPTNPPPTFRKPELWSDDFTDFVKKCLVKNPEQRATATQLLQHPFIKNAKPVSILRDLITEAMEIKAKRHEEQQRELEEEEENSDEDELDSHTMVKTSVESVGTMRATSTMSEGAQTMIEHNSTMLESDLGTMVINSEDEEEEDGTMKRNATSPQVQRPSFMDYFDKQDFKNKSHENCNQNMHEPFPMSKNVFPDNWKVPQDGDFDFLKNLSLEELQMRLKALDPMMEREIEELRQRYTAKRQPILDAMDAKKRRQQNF
Outline: as §1

CSNK2A1 = molecular target: T3, CSNK2A1 (Homo sapiens, UniProt P68400); conditions: read-out: ΔTm
T3 construct: purchased in-house (home-made panel, SGC-style construct names)
Outline: as §1

DYRK2A = molecular target: T4, DYRK2A (Homo sapiens, UniProt Q92630); conditions: 10 μM compound
T4 construct: purchased in-house (home-made panel, SGC-style construct names)
T4 sequence (Q92630 1-601): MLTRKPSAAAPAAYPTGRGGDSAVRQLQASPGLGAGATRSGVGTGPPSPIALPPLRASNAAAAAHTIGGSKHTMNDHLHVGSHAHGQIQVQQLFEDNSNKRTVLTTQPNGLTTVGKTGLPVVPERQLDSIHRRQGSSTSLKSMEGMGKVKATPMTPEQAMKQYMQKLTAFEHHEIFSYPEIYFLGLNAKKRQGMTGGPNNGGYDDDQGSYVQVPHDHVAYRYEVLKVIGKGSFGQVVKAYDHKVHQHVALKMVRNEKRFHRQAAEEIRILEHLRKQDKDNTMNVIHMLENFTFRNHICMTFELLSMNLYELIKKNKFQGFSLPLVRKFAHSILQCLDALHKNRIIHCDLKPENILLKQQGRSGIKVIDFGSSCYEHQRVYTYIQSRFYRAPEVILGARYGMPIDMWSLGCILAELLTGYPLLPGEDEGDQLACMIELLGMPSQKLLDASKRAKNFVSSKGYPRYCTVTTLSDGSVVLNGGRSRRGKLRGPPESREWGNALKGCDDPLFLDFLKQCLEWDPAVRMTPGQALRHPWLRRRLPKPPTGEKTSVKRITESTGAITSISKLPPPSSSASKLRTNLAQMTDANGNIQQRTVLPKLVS
Outline: as §1

BRAFA = molecular target: T5, BRAFA (Homo sapiens, UniProt P15056); conditions: 10 μM compound
T5 construct: purchased in-house (home-made panel, SGC-style construct names)
Outline: as §1

T5 sequence (P15056 whole entry): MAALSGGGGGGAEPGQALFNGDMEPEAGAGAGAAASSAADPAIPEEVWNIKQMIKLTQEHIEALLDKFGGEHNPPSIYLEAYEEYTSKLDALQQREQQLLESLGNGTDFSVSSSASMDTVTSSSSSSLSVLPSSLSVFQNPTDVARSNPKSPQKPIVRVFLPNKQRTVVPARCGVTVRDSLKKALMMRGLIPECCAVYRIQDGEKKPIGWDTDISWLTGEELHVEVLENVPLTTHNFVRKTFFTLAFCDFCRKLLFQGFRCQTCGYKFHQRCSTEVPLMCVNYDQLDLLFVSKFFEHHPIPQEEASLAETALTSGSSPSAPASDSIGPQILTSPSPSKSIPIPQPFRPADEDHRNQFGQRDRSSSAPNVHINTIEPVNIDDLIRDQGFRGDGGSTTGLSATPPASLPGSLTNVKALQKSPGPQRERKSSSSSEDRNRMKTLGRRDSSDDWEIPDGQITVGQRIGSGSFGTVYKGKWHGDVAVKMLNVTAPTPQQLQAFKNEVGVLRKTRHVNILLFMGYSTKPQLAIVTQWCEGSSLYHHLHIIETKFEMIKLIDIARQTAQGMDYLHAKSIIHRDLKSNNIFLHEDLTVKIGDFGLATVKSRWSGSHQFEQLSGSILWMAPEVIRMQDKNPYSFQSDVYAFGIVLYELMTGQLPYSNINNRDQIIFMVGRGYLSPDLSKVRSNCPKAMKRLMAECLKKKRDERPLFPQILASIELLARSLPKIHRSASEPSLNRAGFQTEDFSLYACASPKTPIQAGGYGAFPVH
T3 sequence (P68400 whole entry): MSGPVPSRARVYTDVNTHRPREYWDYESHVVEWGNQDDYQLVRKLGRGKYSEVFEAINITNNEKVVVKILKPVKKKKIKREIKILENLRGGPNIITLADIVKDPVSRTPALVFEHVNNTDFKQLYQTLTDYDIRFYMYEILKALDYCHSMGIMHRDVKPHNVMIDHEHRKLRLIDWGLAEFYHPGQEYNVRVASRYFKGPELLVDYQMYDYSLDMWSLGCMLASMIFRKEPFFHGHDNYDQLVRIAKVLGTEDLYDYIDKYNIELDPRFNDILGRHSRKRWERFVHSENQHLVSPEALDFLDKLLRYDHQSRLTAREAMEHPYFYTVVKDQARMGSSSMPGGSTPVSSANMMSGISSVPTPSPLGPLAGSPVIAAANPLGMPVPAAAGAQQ

SMILES	ΔTm at 10 µM (PHKG2A)	ΔTm at 10 µM (STK3)	ΔTm at 10 µM (CSNK2A1; DSF, 10 μM compound)	ΔTm at 10 µM (DYRK2A)	ΔTm at 10 µM (BRAFA)	ΔTm at 10 µM (CSNK2A1)
Cc1ccc(Nc2nsnc(Nc3cccc(C(N)=O)c3)c2=O)cc1O [Compound 1, 3-({5-[(3-Hydroxy-4-methylphenyl)amino]-4-oxo-4H-1,2,6-thiadiazin-3-yl}amino)benzamide]	0.7 °C	0.2 °C	-0.9 °C	0.1 °C	-0.1 °C	
Cc1ccc(Nc2nsnc(Nc3ccc(C(N)=O)cc3)c2=O)cc1O [Compound 2, 4-({5-[(3-Hydroxy-4-methylphenyl)amino]-4-oxo-4H-1,2,6-thiadiazin-3-yl}amino)benzamide]	2.4 °C	2.1 °C		2.4 °C	0.2 °C	-0.2 °C
Cc1ccc(Nc2nsnc(Nc3ccc4c(c3)CS(=O)(=O)C4)c2=O)cc1O [Compound 3, 3-[(2,2-Dioxido-1,3-dihydrobenzo[c]thiophen-5-yl)amino]-5-[(3-hydroxy-4-methylphenyl)amino]-4H-1,2,6-thiadiazin-4-one]	1.6 °C	1.1 °C	-0.6 °C	0.7 °C	0.7 °C	
CNC(=O)c1ccccc1Nc1nsnc(Nc2cccc(CS(C)(=O)=O)c2)c1=O [Compound 4, N-Methyl-2-([5-({3-[(methylsulfonyl)methyl]phenyl}amino)-4-oxo-4H-1,2,6-thiadiazin-3-yl]-amino}-benzamide]	0.2 °C	-0.4 °C	-0.4 °C	0.1 °C	0.1 °C	
CNC(=O)c1ccccc1Nc1nsnc(Nc2ccc(N3CCOCC3)cc2)c1=O [Compound 5, N-Methyl-2-({5-[(4-morpholinophenyl)amino]-4-oxo-4H-1,2,6-thiadiazin-3-yl}amino)benzamide]	0.2 °C	-0.3 °C	-0.4 °C	0.1 °C	0.4 °C	
